{"source": "patent US11072592B2", "about": "“Small molecules that enable cartilage rejuvenation” (The Regents of the University of California, priority 2015, dated 2021)", "system": "p-STAT3/c-MYC", "test": "Secondary screening for effects on p-STAT3/c-MYC protein levels", "type": "cell-based", "conditions": "secondary screening of 75 compounds", "procedure": "In a clinical setting, treatment with exogenous growth factors would present a difficult and expensive strategy. To address this, our group designed a high throughput screen to identify small molecule modulators of chondrogenic differentiation based on the prevention of the hypertrophy-associated marker collagen X (COLX). […] Importantly, the stimulatory effect of CRMs on p-STAT3 and c-MYC was reversible; protein levels of both p-STAT-3 and c-MYC decreased 48 hours after CRM-398 or -423 withdrawal (data not shown). Identification of such compounds can not only allow us to control differentiation of chondrocytes, but also manipulate the expression of STAT3 and c-MYC to achieve rejuvenation of adult chondrocytes. CRM-398 and -423 can be tested in parallel with LIF and their effects on adult articular chondrocyte activation can be assessed as described herein.\nA strategy for screening for molecules with anti-differentiation effects includes observation of primary limb mesenchyme from mCherry-COL10A1 mice. The screening strategy identifies molecules with STAT3 and c-Myc modulatory activity. FIG. 14 depicts exemplary results for a screening conducted on 170,000 compounds, resulting in 469 hits. FIG. 15 depicts percentage positive z-scores for the 469 compounds identified. FIG. 16 depicts a further screening analysis of the previously identified 469 hit compounds, resulting in 75 refined hits. […]", "data": [{"smiles": "Brc1ccc(Nc2nc(-c3ccccc3)cs2)cc1", "note": "[RCGD 423, N-(4-Bromophenyl)-4-phenyl-1,3-thiazol-2-amine]", "values": [{"measurement": "effects on p-STAT3/c-MYC protein levels", "result": "most prominent effects"}]}]}
